Experimental data taken from patent US20250236589A1, “THERAPEUTIC PHENETHYLAMINE COMPOSITIONS AND METHODS OF USE” (Cybin IRL Limited, priority 2022, published 2025).
Where two headings read alike, the source gives them in different places.

How the values were obtained:
Neuropeptide Y Y2 (h) = Neuropeptide Y Y2 (h) (Homo sapiens (Human), UniProt P49146); assay: Off-target screen, radioligand displacement at 10 μM; details: read-out: binding at 10 μM
[1] = test system: BB (nonselective) (rat cortex); assay: as above; format: binding
[2] = target: Cholecystokinin CCK2 (CCKB) (h) (Homo sapiens (Human), UniProt P32239); assay: as above; details: read-out: binding at 10 μM
Histamine H2 (h) = Histamine H2 (h) (Homo sapiens (Human), UniProt P25021); assay: as above; details: read-out: binding at 10 μM
[3] = In vitro liver microsome stability (MsLM); format: in vitro ADME; details: mouse, mouse liver microsomes, 0.5 mg/mL microsomes, NADPH, read-out: MsLM, t1/2
Description: (§1) In vitro stability was determined in Human (HLM), Rat (RLM), Mouse (MsLM), and dog (DLM) Liver Microsomes. All liver microsomes were purchased from a commercial supplier (e.g. XenoTech). The reaction mixture, minus NADPH, was prepared as described below. The test compound was added into the reaction mixture at a final concentration of 1 μM or co-dosed with their deuterated analog(s) at 1 μM each. The control compound, testosterone, was run simultaneously with the test compound in a separate reaction. The reaction mixture (without cofactor) was equilibrated in a shaking water bath at 37° C. for 5 minutes. The reaction was initiated by the addition of the cofactor, and the mixture was incubated in a shaking water bath at 37° C. Aliquots (150 μL) were withdrawn at 0, 5, 10, 20, 30, 60, and 120 minutes. Test compound and testosterone samples were immediately combined with 150 μL of ice-cold acetonitrile (ACN) containing 0.1% formic acid and internal standard to terminate the reaction. The samples were then mixed and centrifuged to precipitate proteins. All samples were assayed by LC-MS/MS using electrospray ionization. […] Half-lives were calculated using GraphPad software, fitting to a single-phase exponential decay equation.

Neuropeptide Y Y1 (h) = Neuropeptide Y Y1 (h) (Homo sapiens (Human), UniProt P25929); assay: Off-target screen, radioligand displacement at 10 μM; details: read-out: binding at 10 μM
Melanocortin MC4 (h) = Melanocortin MC4 (h) (Homo sapiens (Human), UniProt P32245); assay: as above; details: read-out: binding at 10 μM
5-HT5a (h) = 5-HT5a (h) (Homo sapiens (Human), UniProt P47898); assay: as above; details: agonist, read-out: binding at 10 μM
5-HT3 (h) = 5-HT3 (h) (Homo sapiens (Human), UniProt P46098); assay: as above; details: antagonist, read-out: binding at 10 μM
[4] = test system: Somatostatin SST (non-selective) (m); assay: as above; format: binding, mouse
Cannabinoid CB1 (h) = Cannabinoid CB1 (h) (Homo sapiens (Human), UniProt P21554); assay: as above; format: binding
[5] = target: Prostacyclin IP (PGI2) (h) (Homo sapiens (Human), UniProt P43119); assay: as above; details: read-out: binding at 10 μM
Muscarinic M4 (h) = Muscarinic M4 (h) (Homo sapiens (Human), UniProt P08173); assay: as above; format: binding; details: antagonist radioligand
δ-opioid (h) = δ-opioid (h) (Homo sapiens (Human), UniProt P41143); assay: as above; details: read-out: binding at 10 μM
μ-opioid (h) = μ-opioid (h) (Homo sapiens (Human), UniProt P35372); assay: as above; format: binding
Adrenergic β2 (h) = Adrenergic β2 (h) (Homo sapiens (Human), UniProt P07550); assay: as above; format: binding; details: antagonist radioligand
[6] = target: BZD (peripheral) (rat heart) (Rattus norvegicus (Rat), UniProt P16257); assay: as above; details: read-out: binding at 10 μM
[7] = In vitro liver microsome stability (DLM); format: in vitro ADME; details: dog, dog liver microsomes, 0.5 mg/mL microsomes, NADPH, read-out: DLM, t1/2
Description: as §1

Orphanin ORL1 (h) = Orphanin ORL1 (h) (Homo sapiens (Human), UniProt P41146); assay: Off-target screen, radioligand displacement at 10 μM; details: read-out: binding at 10 μM
[8] = In vitro liver microsome stability (HLM); format: in vitro ADME; details: human, human liver microsomes, 0.5 mg/mL microsomes, NADPH, read-out: HLM, t1/2
Description: as §1

[9] = test system: sigma (non-selective) (h); assay: Off-target screen, radioligand displacement at 10 μM; format: binding, human; details: agonist radioligand
α1 (non-selective) (r) = assay: as above; format: binding, rat
5-HT2C receptor = 5-HT2C receptor (Homo sapiens (Human), UniProt P28335); assay: 5-HT2C agonist radioligand binding ([125I]DOI)
Text: 5-HT2 Receptor Activity. […] Drug Test Anal 2012, 4 (7-8), 556-76. Ray, T. S., Psychedelics and the human receptorome. PLoS One 2010, 5 (2), e9019].

[10] = test system: Potassium KV channel (rat cortex); assay: Off-target screen, radioligand displacement at 10 μM; format: binding
[11] = test system: Calcium SKCa channel (rat cortex); assay: as above; format: binding
5-HT2A receptor = 5-HT2A receptor (Homo sapiens (Human), UniProt P28223); assay: 5-HT2A radioligand competition binding ([3H]LSD or [3H]ketanserin)
Galanin GAL1 (h) = Galanin GAL1 (h) (Homo sapiens (Human), UniProt P47211); assay: Off-target screen, radioligand displacement at 10 μM; details: read-out: binding at 10 μM
[12] = test system: Calcium Channel L-Type, Phenylalkylamine, verapamil site (rat cortex); assay: as above; format: binding; details: antagonist radioligand
[13] = read-out: inhibition of radioligand bound at 10 μM

Sequence of 5-HT2C receptor (P28335 whole entry, looked up): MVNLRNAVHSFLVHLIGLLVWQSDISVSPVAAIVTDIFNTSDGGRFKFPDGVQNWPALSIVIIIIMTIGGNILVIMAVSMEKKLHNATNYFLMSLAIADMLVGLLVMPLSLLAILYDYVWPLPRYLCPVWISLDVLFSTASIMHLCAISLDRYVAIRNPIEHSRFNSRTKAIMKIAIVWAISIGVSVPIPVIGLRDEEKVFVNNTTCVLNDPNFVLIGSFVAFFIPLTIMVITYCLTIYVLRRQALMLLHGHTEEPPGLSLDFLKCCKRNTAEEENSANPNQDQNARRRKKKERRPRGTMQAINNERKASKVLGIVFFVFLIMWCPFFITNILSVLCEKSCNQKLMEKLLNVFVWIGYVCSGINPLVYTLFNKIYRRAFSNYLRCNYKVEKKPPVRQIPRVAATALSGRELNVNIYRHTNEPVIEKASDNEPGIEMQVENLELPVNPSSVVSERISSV
Sequence of Cholecystokinin CCK2 (CCKB) (h) (P32239 whole entry, looked up): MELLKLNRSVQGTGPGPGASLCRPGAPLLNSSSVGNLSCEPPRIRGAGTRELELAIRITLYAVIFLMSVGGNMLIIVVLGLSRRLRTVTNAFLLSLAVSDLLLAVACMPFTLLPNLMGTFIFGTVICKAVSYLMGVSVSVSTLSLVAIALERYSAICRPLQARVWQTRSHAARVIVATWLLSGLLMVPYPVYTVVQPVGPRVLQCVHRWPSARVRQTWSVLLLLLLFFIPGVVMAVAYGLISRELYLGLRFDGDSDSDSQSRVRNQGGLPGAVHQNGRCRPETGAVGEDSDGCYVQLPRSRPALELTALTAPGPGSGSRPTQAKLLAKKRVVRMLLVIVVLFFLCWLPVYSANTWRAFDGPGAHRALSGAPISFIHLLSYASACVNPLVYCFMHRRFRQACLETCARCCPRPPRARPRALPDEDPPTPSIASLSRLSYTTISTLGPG
Sequence of BZD (peripheral) (rat heart) (P16257 whole entry, looked up): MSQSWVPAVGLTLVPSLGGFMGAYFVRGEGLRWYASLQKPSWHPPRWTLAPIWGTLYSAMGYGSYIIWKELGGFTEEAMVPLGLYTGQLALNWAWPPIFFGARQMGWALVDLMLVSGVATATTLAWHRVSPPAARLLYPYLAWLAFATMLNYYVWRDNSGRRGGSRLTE
Sequence of Muscarinic M4 (h) (P08173 whole entry, looked up): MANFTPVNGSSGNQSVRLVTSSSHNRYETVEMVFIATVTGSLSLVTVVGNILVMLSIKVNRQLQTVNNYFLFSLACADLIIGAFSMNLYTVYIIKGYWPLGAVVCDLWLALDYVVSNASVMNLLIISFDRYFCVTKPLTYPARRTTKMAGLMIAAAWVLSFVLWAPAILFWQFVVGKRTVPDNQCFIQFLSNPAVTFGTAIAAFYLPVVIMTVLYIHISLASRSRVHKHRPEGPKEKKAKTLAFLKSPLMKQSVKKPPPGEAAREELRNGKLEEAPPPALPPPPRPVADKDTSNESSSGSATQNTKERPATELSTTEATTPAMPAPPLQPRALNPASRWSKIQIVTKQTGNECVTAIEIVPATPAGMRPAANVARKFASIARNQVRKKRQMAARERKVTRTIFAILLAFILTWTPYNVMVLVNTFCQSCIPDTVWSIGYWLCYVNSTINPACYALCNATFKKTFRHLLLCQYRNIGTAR
Sequence of Histamine H2 (h) (P25021 whole entry, looked up): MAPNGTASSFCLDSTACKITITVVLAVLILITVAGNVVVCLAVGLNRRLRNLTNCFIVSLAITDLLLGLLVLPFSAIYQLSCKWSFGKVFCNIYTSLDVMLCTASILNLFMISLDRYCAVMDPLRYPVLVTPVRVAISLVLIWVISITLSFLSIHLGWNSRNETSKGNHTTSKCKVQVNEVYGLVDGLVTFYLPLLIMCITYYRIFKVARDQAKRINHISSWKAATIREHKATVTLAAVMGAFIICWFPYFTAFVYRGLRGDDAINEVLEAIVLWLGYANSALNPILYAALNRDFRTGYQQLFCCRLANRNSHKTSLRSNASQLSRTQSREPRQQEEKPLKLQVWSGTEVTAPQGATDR
Sequence of Neuropeptide Y Y1 (h) (P25929 whole entry, looked up): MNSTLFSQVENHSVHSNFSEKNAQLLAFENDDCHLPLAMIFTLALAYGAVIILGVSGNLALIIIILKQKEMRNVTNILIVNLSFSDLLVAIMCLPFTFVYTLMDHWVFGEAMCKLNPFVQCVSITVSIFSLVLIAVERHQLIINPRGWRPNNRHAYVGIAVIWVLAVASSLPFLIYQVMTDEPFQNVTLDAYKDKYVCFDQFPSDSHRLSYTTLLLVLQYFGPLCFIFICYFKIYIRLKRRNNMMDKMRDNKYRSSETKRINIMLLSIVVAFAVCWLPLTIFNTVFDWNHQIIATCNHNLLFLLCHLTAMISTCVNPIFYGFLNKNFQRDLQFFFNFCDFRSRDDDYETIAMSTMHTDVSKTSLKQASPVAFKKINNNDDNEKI
Sequence of 5-HT3 (h) (P46098 whole entry, looked up): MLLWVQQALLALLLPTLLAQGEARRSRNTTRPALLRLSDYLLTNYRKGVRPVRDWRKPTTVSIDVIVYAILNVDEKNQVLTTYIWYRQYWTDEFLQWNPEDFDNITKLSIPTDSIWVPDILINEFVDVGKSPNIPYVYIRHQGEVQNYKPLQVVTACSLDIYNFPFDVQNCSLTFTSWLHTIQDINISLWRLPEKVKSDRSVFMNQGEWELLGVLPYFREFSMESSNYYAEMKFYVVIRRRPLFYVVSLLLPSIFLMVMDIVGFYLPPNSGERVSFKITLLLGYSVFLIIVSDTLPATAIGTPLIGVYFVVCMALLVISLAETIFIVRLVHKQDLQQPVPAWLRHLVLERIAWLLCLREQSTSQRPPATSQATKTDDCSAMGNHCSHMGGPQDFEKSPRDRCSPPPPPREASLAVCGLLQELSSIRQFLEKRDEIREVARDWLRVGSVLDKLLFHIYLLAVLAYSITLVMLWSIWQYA
Sequence of δ-opioid (h) (P41143 whole entry, looked up): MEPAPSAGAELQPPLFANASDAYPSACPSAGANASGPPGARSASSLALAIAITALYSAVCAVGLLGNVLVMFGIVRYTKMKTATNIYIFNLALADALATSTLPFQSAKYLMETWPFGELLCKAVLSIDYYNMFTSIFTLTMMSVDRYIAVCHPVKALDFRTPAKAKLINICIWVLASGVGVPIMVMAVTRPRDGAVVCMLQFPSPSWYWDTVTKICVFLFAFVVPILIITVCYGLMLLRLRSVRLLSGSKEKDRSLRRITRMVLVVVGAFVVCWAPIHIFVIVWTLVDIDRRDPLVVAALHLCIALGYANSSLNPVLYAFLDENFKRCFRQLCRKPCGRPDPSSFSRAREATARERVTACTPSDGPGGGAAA
Sequence of Galanin GAL1 (h) (P47211 whole entry, looked up): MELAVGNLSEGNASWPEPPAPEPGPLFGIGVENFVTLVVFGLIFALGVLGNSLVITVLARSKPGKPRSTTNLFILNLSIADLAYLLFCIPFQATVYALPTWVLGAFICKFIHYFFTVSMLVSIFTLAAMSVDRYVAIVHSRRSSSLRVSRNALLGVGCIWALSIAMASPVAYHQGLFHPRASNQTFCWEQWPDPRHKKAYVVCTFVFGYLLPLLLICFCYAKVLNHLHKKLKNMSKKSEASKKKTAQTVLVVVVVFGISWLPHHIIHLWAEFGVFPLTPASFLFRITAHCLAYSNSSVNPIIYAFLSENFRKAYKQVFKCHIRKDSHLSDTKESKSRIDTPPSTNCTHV
Sequence of Melanocortin MC4 (h) (P32245 whole entry, looked up): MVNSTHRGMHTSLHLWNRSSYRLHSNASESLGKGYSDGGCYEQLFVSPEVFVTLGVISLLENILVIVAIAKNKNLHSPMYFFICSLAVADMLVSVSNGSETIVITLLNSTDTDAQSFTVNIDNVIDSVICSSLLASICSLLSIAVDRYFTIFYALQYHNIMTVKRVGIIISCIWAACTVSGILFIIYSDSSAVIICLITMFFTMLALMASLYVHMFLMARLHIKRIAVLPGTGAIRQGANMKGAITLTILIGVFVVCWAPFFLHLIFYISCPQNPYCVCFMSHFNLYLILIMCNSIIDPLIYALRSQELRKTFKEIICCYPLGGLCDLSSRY
Sequence of Neuropeptide Y Y2 (h) (P49146 whole entry, looked up): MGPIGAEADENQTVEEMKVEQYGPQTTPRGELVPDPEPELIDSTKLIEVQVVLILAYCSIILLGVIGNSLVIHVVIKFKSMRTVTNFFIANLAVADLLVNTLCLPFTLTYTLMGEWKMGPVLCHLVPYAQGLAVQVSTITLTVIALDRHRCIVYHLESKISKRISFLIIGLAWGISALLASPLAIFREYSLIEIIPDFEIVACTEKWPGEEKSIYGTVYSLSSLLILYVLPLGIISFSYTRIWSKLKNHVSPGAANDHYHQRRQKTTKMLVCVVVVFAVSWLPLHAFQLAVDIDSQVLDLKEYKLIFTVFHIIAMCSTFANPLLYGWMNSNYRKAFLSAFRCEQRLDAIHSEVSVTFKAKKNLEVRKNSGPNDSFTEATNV
Sequence of Adrenergic β2 (h) (P07550 whole entry, looked up): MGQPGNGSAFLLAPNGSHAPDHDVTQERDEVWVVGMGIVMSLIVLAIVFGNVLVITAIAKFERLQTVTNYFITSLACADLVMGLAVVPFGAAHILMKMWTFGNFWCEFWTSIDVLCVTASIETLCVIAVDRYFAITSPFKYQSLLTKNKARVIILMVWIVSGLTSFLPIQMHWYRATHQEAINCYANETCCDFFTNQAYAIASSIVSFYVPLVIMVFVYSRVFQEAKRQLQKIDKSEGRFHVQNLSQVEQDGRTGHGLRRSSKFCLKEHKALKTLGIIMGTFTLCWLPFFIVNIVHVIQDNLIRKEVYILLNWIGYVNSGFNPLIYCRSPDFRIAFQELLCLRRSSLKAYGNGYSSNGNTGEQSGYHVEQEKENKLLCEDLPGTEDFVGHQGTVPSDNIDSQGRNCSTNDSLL

Row | SMILES | inhibition at 10 µM (Neuropeptide Y Y2 (h)) | binding at 10 μM [1] | inhibition at 10 µM [2] | inhibition at 10 µM (Histamine H2 (h)) | inhibition at 10 µM (Neuropeptide Y Y1 (h)) | inhibition at 10 µM (Melanocortin MC4 (h)) | inhibition at 10 µM (5-HT5a (h)) | inhibition at 10 µM (5-HT3 (h)) | binding at 10 μM [4] | inhibition at 10 µM (Cannabinoid CB1 (h); read-out: binding at 10 μM) | inhibition at 10 µM (Cannabinoid CB1 (h); [13]) | inhibition at 10 µM [5] | inhibition at 10 µM (Muscarinic M4 (h)) | inhibition at 10 µM (δ-opioid (h)) | inhibition at 10 µM (Adrenergic β2 (h)) | inhibition at 10 µM [6] | inhibition at 10 µM (Orphanin ORL1 (h)) | inhibition at 10 µM [9] | binding at 10 μM (α1 (non-selective) (r)) | binding at 10 μM [10] | other results
1 | COc1cc(SC(F)(F)F)c(OC)cc1CCN [Compound I-1, 2-(2,5-dimethoxy-4-((trifluoromethyl)thio)phenyl)ethan-1-amine] | < 50% | NB (inhibited less than 50% of radioligand bound to them, and therefore it can be concluded they do not bind (“no binding,” NB)) | < 50% | < 50% | < 50% | < 50% | < 50% | < 50% | NB (inhibited less than 50% of radioligand bound to them, and therefore it can be concluded they do not bind (“no binding,” NB)) | < 50% | < 50% | < 50% | > 80% | < 50% | 52.2% | < 50% | < 50% | 64.1% inhibition at 10 μM | NB (inhibited less than 50% of radioligand bound to them, and therefore it can be concluded they do not bind (“no binding,” NB)) | NB (inhibited less than 50% of radioligand bound to them, and therefore it can be concluded they do not bind (“no binding,” NB)) | half-life at 1 μM [3]: > 2 h; inhibition at 10 µM (μ-opioid (h); read-out: binding at 10 μM): < 50%; half-life at 1 μM [7]: > 2 h; half-life at 1 μM [8]: > 2 h; inhibition at 10 µM (5-HT2C receptor): > 80%; binding selectivity for 5-HT2C over 5-HT2B (5-HT2C receptor; Ki, [125I]DOI): ~12 fold; Ki (5-HT2C receptor; radioligand [125I](±)DOI, read-out: 5-HT2C, Ki): 0.55 nM; binding at 10 μM [11]: NB (inhibited less than 50% of radioligand bound to them, and therefore it can be concluded they do not bind (“no binding,” NB)); Ki (5-HT2A receptor): 54 nM; affinity at 5-HT2A receptors (in words) (5-HT2A receptor): superior affinity; Ki (5-HT2A receptor; read-out: 5-HT2A, Ki, [3H]ketanserin, high-affinity active state): 2.5 nM; inhibition at 10 µM (Galanin GAL1 (h)): < 50%
2 | COc1cc(CC(C)N)c(OC)cc1I (racemic) [DOI, (±)-2,5-dimethoxy-4-iodoamphetamine, reference compound] | < 50% | NB (inhibited less than 50% of radioligand bound to them, and therefore it can be concluded they do not bind (“no binding,” NB)) | < 50% | < 50% | < 50% | < 50% | < 50% | < 50% | NB (inhibited less than 50% of radioligand bound to them, and therefore it can be concluded they do not bind (“no binding,” NB)) | < 50% | < 50% | < 50% | 75.7% | < 50% | ≥ 80% | < 50% | < 50% | 61.7% inhibition at 10 μM | NB (inhibited less than 50% of radioligand bound to them, and therefore it can be concluded they do not bind (“no binding,” NB)) | NB (inhibited less than 50% of radioligand bound to them, and therefore it can be concluded they do not bind (“no binding,” NB)) | inhibition at 10 µM [12]: 55.5% inhibition at 10 μM; inhibition at 10 µM (μ-opioid (h); agonist radioligand, read-out: inhibition at 10 μM): 65%; Ki (5-HT2C receptor): 0.48 nM; binding at 10 μM [11]: NB (inhibited less than 50% of radioligand bound to them, and therefore it can be concluded they do not bind (“no binding,” NB)); inhibition at 10 µM (Galanin GAL1 (h)): < 50%
